In patent US12624024B2, “EP2 antagonist compounds” (Reservoir Neuroscience, Inc., priority 2021, dated 2026):

Each compound was assayed against T1, EP2 receptor (Homo sapiens, UniProt P43116) (assay: EP2 Potency Assay (cAMP TR-FRET, CHO-K1 cells transfected with EP2 receptor, PGE2 at EC80)). Settings: CHO-K1 cells expressing EP2, prostaglandin E2 at EC80, read-out: EP2 Potency (IC50 category).
T1 construct: expressed in transfected cells; host or cells: CHO-K1 cells (ATCC), transient transfection with FuGENE 6
Format: cell-based
Method: Compound potency was measured using a cAMP TR-FRET assay.
After 6 hours incubation, the cell media was replaced with F12 medium supplemented with 10% FBS and 100 U/ml Pen-Strep. 24 hours after transfection, cells were harvested and seeded at a density of 3000 cells/well in a 384 well plate to perform the cAMP assay, using the LANCE Ultra cAMP assay kit (PerkinElmer).
Plates were then centrifuged at 1000 rpm for 1 min, agitated at 600 rpm at R.T. for 2 min, and incubated at 25° C. for 5 min. The reference agonist, prostaglandin E2 (MCE), was added to each well at the appropriate concentration to reach its EC80 value. Plates were then centrifuged at 1000 rpm for 1 min, agitated at 600 rpm at R.T. for 2 min, and incubated at 25° C. for 30 min.
A dose-response curve was prepared by plotting percent inhibition for each compound concentration, and then IC50 was calculated by fitting a curve to the plotted values and extrapolating the IC50 concentration.

T1 sequence (P43116 whole entry): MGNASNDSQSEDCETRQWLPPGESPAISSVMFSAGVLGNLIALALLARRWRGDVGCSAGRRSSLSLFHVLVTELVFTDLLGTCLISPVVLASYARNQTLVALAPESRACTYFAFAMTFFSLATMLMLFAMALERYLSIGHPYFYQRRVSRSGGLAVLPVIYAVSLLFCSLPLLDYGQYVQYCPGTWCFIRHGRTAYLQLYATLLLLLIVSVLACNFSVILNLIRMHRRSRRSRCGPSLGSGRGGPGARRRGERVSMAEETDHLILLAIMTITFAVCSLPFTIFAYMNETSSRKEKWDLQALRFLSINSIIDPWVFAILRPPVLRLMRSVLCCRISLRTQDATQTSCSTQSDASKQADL

First: COc1cc(C(C)N2CCOc3c(Cl)cc(-n4ccc5cc(F)ccc54)cc3C2)ccn1 (racemic) [Compound 217, 9-chloro-7-(5-fluoroindol-1-yl)-4-[1-(2-methoxypyridin-4-yl)ethyl]-3,5-dihydro-2H-1,4-benzoxazepine]
Second: COc1nccc(CN2Cc3cc(-n4ccc5cc(F)ccc54)cc(Cl)c3OC[C@H]2C)n1 [Compound 10]
The IC50 of the first is higher: > 5000 nM for the first, 500 to 1000 nM for the second.

Compared with `C[C@@H]1c2cc(-n3ccc4cc(F)ccc43)cc(Cl)c2OCCN1Cc1cc[nH]c(=O)c1` (single isomer, unassigned) [Compound 236], `C[C@@H]1COc2c(Cl)cc(-n3ccc4cc(F)ccc43)cc2CN1Cc1cc[nH]c(=O)n1` [Compound 12] is lower in IC50: > 5000 nM for the first, 500 to 1000 nM for the second. The second is the more potent here.

`COc1ncc(CN2CCOc3c(Cl)cc(-n4ccc5cc(C)ccc54)cc3C2)cn1` [Compound 14] and `COc1ncc(CN2CCOc3c(Cl)cc(-n4ccc5cc(Cl)ccc54)cc3C2)cn1` [Compound 20] fall in the same range of IC50: 500 to 1000 nM for the first, 500 to 1000 nM for the second.

`COc1ncc(CN2CCOc3c(Cl)cc(-n4ccc5cc(C(F)(F)F)ccc54)cc3C2)cn1` [Compound 15] and `COc1ncc(CN2CCOc3c(Cl)cc(-n4ccc5cc(Br)ccc54)cc3C2)cn1` [Compound 22] cannot be ordered by IC50: > 5000 nM for the first, > 5000 nM for the second.

Compared with `COc1ncc(CN2CCOc3c(Cl)cc(-n4ccc5cc(C#N)ccc54)cc3C2)cn1` [Compound 16], `COc1ccc2c(ccn2-c2cc(Cl)c3c(c2)CN(Cc2cnc(OC)nc2)CCO3)c1` [Compound 19] is higher in IC50: 500 to 1000 nM for the first, > 5000 nM for the second. The first is the more potent here.

First: COc1ncc(CN2CCOc3c(Cl)cc(-n4cc(C(F)(F)F)c5ccccc54)cc3C2)cn1 [Compound 17, 9-chloro-4-[(2-methoxypyrimidin-5-yl)methyl]-7-[3-(trifluoromethyl)indol-1-yl]-3,5-dihydro-2H-1,4-benzoxazepine]
Second: COc1ncc(CN2CCOc3c(Cl)cc(-n4cc(Cl)c5cc(F)ccc54)cc3C2)cn1 [Compound 27]
The IC50 of the first is higher: 1000 to 5000 nM for the first, 500 to 1000 nM for the second. The second is the more potent here.

`COc1ncc(CN2CCOc3c(Cl)cc(-n4ccc5cc(N(C)C)ccc54)cc3C2)cn1` [Compound 18] and `COc1ncc(CN2CCOc3c(Cl)cc(-n4ccc5cc(SC)ccc54)cc3C2)cn1` [Compound 21] cannot be ordered by IC50: > 5000 nM for the first, > 5000 nM for the second.

Compared with `COc1ncc(CN2CCOc3c(Cl)cc(-n4ccc5cc(F)c(F)cc54)cc3C2)cn1` [Compound 24], `COc1ncc(CN2CCOc3c(Cl)cc(-n4ccc5cc(F)c(Cl)cc54)cc3C2)cn1` [Compound 28] is higher in IC50: 1000 to 5000 nM for the first, > 5000 nM for the second. The first is the more potent here.

First: COc1ncc(CN2CCOc3c(Cl)cc(-n4ccc5c(F)c(Cl)ccc54)cc3C2)cn1 [Compound 26]
Second: COc1ncc(CN2CCOc3c(Cl)cc(-n4ccc5nc(Cl)ccc54)cc3C2)cn1 [Compound 38]
The IC50 of the first is lower: 500 to 1000 nM for the first, 1000 to 5000 nM for the second. The first is the more potent here.

First: COc1ncc(CN2CCOc3c(Cl)cc(-n4cc(Cl)c5cc(Cl)ccc54)cc3C2)cn1 [Compound 29]
Second: COc1ncc(CN2CCOc3c(Cl)cc(-n4cc(C)c5cc(F)ccc54)cc3C2)cn1 [Compound 31]
The IC50 of the first is higher: > 5000 nM for the first, 500 to 1000 nM for the second. The second is the more potent here.

`COc1ncc(CN2CCOc3c(Cl)cc(-n4c(C)cc5cc(F)ccc54)cc3C2)cn1` [Compound 30] and `Cc1cc2cc(F)ccc2n1-c1cc(Cl)c2c(c1)CN(Cc1cnc(=O)[nH]c1)CCO2` [Compound 66] fall in the same range of IC50: 1000 to 5000 nM for the first, 1000 to 5000 nM for the second.

Compared with `COc1ncc(CN2CCOc3c(Cl)cc(-n4ccc5cccnc54)cc3C2)cn1` [Compound 32], `COc1ncc(CN2CCOc3c(Cl)cc(-n4ccc5ncccc54)cc3C2)cn1` [Compound 37] is lower in IC50: 1000 to 5000 nM for the first, 500 to 1000 nM for the second.

First: COc1ncc(CN2CCOc3c(Cl)cc(-n4ccc5cc(F)cnc54)cc3C2)cn1 [Compound 33, 9-chloro-7-(5-fluoro-1H-pyrrolo[2,3-b]pyridin-1-yl)-4-((2-methoxypyrimidin-5-yl)methyl)-2,3,4,5-tetrahydrobenzo[f][1,4]oxazepine]
Second: COc1ncc(CN2CCOc3c(Cl)cc(-n4ccc5cncnc54)cc3C2)cn1 [Compound 42]
The IC50 of the first is lower: 1000 to 5000 nM for the first, > 5000 nM for the second. The first is the more potent here.

`COc1ncc(CN2CCOc3c(Cl)cc(-n4ccc5cc(Cl)ncc54)cc3C2)cn1` [Compound 35] and `COc1ncc(CN2CCOc3c(Cl)cc(-n4ccc5cnccc54)cc3C2)cn1` [Compound 36] cannot be ordered by IC50: > 5000 nM for the first, > 5000 nM for the second.

`COc1ncc(CN2CCOc3c(Cl)cc(-c4cccc5nccn45)cc3C2)cn1` [Compound 39] and `COc1ncc(CN2CCOc3c(Cl)cc(-c4ncc5ccccn45)cc3C2)cn1` [Compound 40, 9-chloro-7-{imidazo[1,5-a]pyridin-3-yl}-4-[(2-methoxypyrimidin-5-yl)methyl]-3,5-dihydro-2H-1,4-benzoxazepine] fall in the same range of IC50: 1000 to 5000 nM for the first, 1000 to 5000 nM for the second.

`COc1ncc(CN2CCOc3c(Cl)cc(-c4ncc5cc(Cl)ccn45)cc3C2)cn1` [Compound 41, 9-chloro-7-{7-chloroimidazo[1,5-a]pyridin-3-yl}-4-[(2-methoxypyrimidin-5-yl)methyl]-3,5-dihydro-2H-1,4-benzoxazepine] and `COc1ncc(CN2CCOc3c(Cl)cc(N4CCc5cc(Cl)ccc54)cc3C2)cn1` [Compound 46, 9-chloro-7-(5-chloro-2,3-dihydroindol-1-yl)-4-[(2-methoxypyrimidin-5-yl)methyl]-3,5-dihydro-2H-1,4-benzoxazepine] fall in the same range of IC50: 500 to 1000 nM for the first, 500 to 1000 nM for the second.

Compared with `COc1ncc(CN2CCOc3c(Cl)cc(-n4ccc5nccnc54)cc3C2)cn1` [Compound 43], `COc1ncc(CN2CCOc3c(Cl)cc(-n4ccc5c4CCCC5)cc3C2)cn1` [Compound 44, 9-chloro-4-[(2-methoxypyrimidin-5-yl)methyl]-7-(4,5,6,7-tetrahydroindol-1-yl)-3,5-dihydro-2H-1,4-benzoxazepine] is lower in IC50: > 5000 nM for the first, 1000 to 5000 nM for the second. The second is the more potent here.

Compared with `COc1ncc(CN2CCOc3c(Cl)cc(N4CCc5cc(F)ccc54)cc3C2)cn1` [Compound 45, 9-chloro-7-(5-fluoro-2,3-dihydroindol-1-yl)-4-[(2-methoxypyrimidin-5-yl)methyl]-3,5-dihydro-2H-1,4-benzoxazepine], `COc1ncc(CN2CCOc3c(Cl)cc(N4CCCc5cc(F)ccc54)cc3C2)cn1` [Compound 49, 9-chloro-7-(6-fluoro-3,4-dihydroquinolin-1(2H)-yl)-4-((2-methoxypyrimidin-5-yl)methyl)-2,3,4,5-tetrahydrobenzo[f][1,4]oxazepine] is higher in IC50: 500 to 1000 nM for the first, > 5000 nM for the second. The first is the more potent here.

Compared with `COc1ncc(CN2CCOc3c(Cl)cc(N4Cc5ccc(F)cc5C4)cc3C2)cn1` [Compound 47, 9-chloro-7-(5-fluoro-1,3-dihydroisoindol-2-yl)-4-[(2-methoxypyrimidin-5-yl)methyl]-3,5-dihydro-2H-1,4-benzoxazepine], `COc1ncc(CN2CCOc3c(Cl)cc(N4CCOc5cc(F)ccc54)cc3C2)cn1` [Compound 51, 9-chloro-7-(7-fluoro-2,3-dihydro-1,4-benzoxazin-4-yl)-4-[(2-methoxypyrimidin-5-yl)methyl]-3,5-dihydro-2H-1,4-benzoxazepine] is higher in IC50: 1000 to 5000 nM for the first, > 5000 nM for the second. The first is the more potent here.

`COc1ncc(CN2CCOc3c(Cl)cc(N4Cc5ccccc5C4=O)cc3C2)cn1` [Compound 48] and `COc1ncc(CN2CCOc3c(Cl)cc(N4CCSc5ccccc54)cc3C2)cn1` [Compound 52] cannot be ordered by IC50: > 5000 nM for the first, > 5000 nM for the second.

First: COc1ncc(CN2CCOc3c(Cl)cc(N4CCS(=O)(=O)c5ccccc54)cc3C2)cn1 [Compound 53]
Second: COc1ncc(CN2CCOc3c(Cl)cc(-c4coc5ccccc45)cc3C2)cn1 [Compound 56]
The IC50 of the first is higher: > 5000 nM for the first, 1000 to 5000 nM for the second. The second is the more potent here.

First: COc1ncc(CN2CCOc3c(Cl)cc(-c4cccc5ccccc45)cc3C2)cn1 [Compound 54]
Second: COc1ncc(CN2CCOc3c(Cl)cc(-c4cccc5c4CCCC5)cc3C2)cn1 [Compound 55]
The IC50 of the first is lower: 1000 to 5000 nM for the first, > 5000 nM for the second.

First: COc1ncc(CN2CCOc3c(Cl)cc(-c4cccc5c4OCCO5)cc3C2)cn1 [Compound 57]
Second: O=c1ncc(CN2CCOc3c(Cl)cc(-n4ccc5ncccc54)cc3C2)c[nH]1 [Compound 68]
The IC50 of the first is higher: > 5000 nM for the first, 500 to 1000 nM for the second.

First: N#Cc1ccc2c(ccn2-c2cc(Cl)c3c(c2)CN(Cc2cnc(=O)[nH]c2)CCO3)c1 [Compound 59]
Second: O=c1ncc(CN2CCOc3c(Cl)cc(-n4ccc5cc(Cl)ccc54)cc3C2)c[nH]1 [Compound 62]
The IC50 of the first is higher: 1000 to 5000 nM for the first, 100 to 500 nM for the second.

First: O=c1ncc(CN2CCOc3c(Cl)cc(-n4ccc5cc(C(F)(F)F)ccc54)cc3C2)c[nH]1 [Compound 60]
Second: CN(C)c1ccc2c(ccn2-c2cc(Cl)c3c(c2)CN(Cc2cnc(=O)[nH]c2)CCO3)c1 [Compound 61]
The IC50 of the first is lower: 1000 to 5000 nM for the first, > 5000 nM for the second.

Compared with `O=c1ncc(CN2CCOc3c(Cl)cc(-n4ccc5c(F)c(F)ccc54)cc3C2)c[nH]1` [Compound 64], `O=c1ncc(CN2CCOc3c(Cl)cc(-n4ccc5c(F)c(Cl)ccc54)cc3C2)c[nH]1` [Compound 65] is higher in IC50: < 100 nM for the first, 500 to 1000 nM for the second. The first is the more potent here.

Compared with `Cc1cn(-c2cc(Cl)c3c(c2)CN(Cc2cnc(=O)[nH]c2)CCO3)c2ccc(F)cc12` [Compound 67], `O=c1ncc(CN2CCOc3c(Cl)cc(-n4ccc5cc(F)cnc54)cc3C2)c[nH]1` [Compound 70, 5-((9-chloro-7-(5-fluoro-1H-pyrrolo[2,3-b]pyridin-1-yl)-2,3-dihydrobenzo[f][1,4]oxazepin-4(5H)-yl)methyl)pyrimidin-2(1H)-one] is higher in IC50: 100 to 500 nM for the first, 1000 to 5000 nM for the second.

`O=c1ncc(CN2CCOc3c(Cl)cc(-n4ccc5cccnc54)cc3C2)c[nH]1` [Compound 69] and `O=c1ncc(CN2CCOc3c(Cl)cc(-n4ccc5ccncc54)cc3C2)c[nH]1` [Compound 71] cannot be ordered by IC50: > 5000 nM for the first, > 5000 nM for the second.

`O=c1ncc(CN2CCOc3c(Cl)cc(-n4ccc5cc(Cl)ncc54)cc3C2)c[nH]1` [Compound 72] and `O=c1ncc(CN2CCOc3c(Cl)cc(-n4ccc5cnccc54)cc3C2)c[nH]1` [Compound 73] cannot be ordered by IC50: > 5000 nM for the first, > 5000 nM for the second.
